One assay relates to SR-BI. Put plainly: SR-BI up-regulation, luciferase reporter in SR-BI-LUC HepG2 cells. Type of assay: cell-based. The settings on record: Homo sapiens, 18 h, maximum up-regulation of luciferase activity versus DMSO, read-out: SR-BI max. On the procedure: Experiments were conducted to detect whether the compounds of the disclosure can pharmacologically up-regulate the expression of ABCA1 and SR-BI. Firstly, ABCA1P-LUC HepG2 cells or SR-BI-LUC HepG2 cells in logarithmic growth phase were digested, diluted in cell culture medium, and counted. Cells were seeded into 96-well plates at a density of 5×10^5/ml (100 μL of the single-cell suspension per well). After cells fully adhered (about 6 h), the medium containing 10% FBS was removed, and the cells were gently washed with PBS. Serum free MEM-EBSS medium (200 μL per test well) and 2 μL of the compounds to be tested (at a final concentration of 10 μg/mL) were added to each test well, and meanwhile, DMSO at a corresponding concentration was added to the control well. After 18-24 h, the medium was removed. Cell Luciferase activity was measured by a method as described in the Luciferase Assay System. By optimizing the final concentration of DMSO, the treatment time of the compounds on the cells and the number of cells seeded into each well during the screening, the final screening conditions were determined as follows: each well is seeded with 5×10^4 cells, DMSO is added at a final concentration of 1%, and the sample is treated for 18 h.
The ratio of change of luciferase activity is calculated with the following formula: Ratio of change (%)=A/B×100;
wherein A is the luciferase activity (RLU) measured after the compound to be tested is added, and B is the luciferase activity (RLU) measured after the blank control (DMSO) is added. The luciferase activity of cells in each well was measured, and the dose-effect relationship between the concentration of the compound and the ratio of change of the luciferase activity was determined to calculate the EC50.
Background: In a reporter assay the amount or activity of a reporter protein is the signal.

For a further assay, the target named is T1, LXRα (Homo sapiens, UniProt Q13133).
T1 construct: expressed in transfected cells; host or cells: HepG2
T1 sequence (Q13133 209-447 limits assumed): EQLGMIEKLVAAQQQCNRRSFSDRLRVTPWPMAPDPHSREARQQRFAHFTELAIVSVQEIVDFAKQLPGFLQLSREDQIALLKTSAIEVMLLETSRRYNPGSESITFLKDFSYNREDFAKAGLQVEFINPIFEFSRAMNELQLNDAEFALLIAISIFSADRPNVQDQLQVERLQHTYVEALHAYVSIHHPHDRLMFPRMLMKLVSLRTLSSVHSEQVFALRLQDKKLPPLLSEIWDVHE
Nature of the assay: Nuclear receptor reporter gene transient transfection (pBIND-hLXRs-LBD) in HepG2 cells, LXRα. The class given is cell-based. On the procedure: HepG2 cells in logarithmic growth phase were digested, seeded into the white/clear 96-well plate at a density of 5×10^4 cells/well/100 μL until the cells grew to about 90% confluence and in good condition. 0.5 μL liposome (Lipofectamine® 2000) diluted with blank medium to 25 μL per well and incubated at room temperature for 5 min. The corresponding plasmids DNA (nuclear receptor plasmid:Gal4=1:10) were diluted in blank DMEM medium to 25 μL/well (mixing of two plasmids), then mixed evenly with the diluted liposome, and incubated for 20 min at 37° C. The DNA-liposome complex (50 μL per well) was added with the DMEM complete medium (100 μL per well) and mixed thoroughly to obtain a DNA-liposome complex cell culture. The cell medium was discarded, and replaced with the DNA-liposome complex cell culture (150 μL/well) (37° C., 5% CO2). After 6 h, the DNA-liposome complex cell culture medium was discarded, and 200 μL serum-free DMEM medium containing the compound at an appropriate concentration was added to each test well, and cultured for 18-24 h. The cell Luciferase activity was measured by the method as described in the Luciferase Assay System.

A further assay concerns ApoE^−/− mice. Put plainly: Atherosclerosis model in ApoE−/− mice on high-fat diet, Oil Red O staining of aorta. The class given is in vivo. The settings on record: 5 mg/kg intragastrically, 12 weeks, HFD, versus model group. On the procedure: (§1) 6-week-old male C57/BL6 ApoE^−/− mice were fed on normal chaw diet for one week. The mice were randomly divided into three groups (control group, high-fat diet model group, and treatment group, 12 mice per group) according to the body weight. From 7-week-old, the high-fat diet model group and the treatment group were fed on a high fat diet (HFD) (0.15% cholesterol and 20% fat), and the control group was fed on normal chow diet. The treatment group (R3) mice were administered intragastrically with TR3 (5 mg/kg). The control group and the high-fat diet model group mice were intragastrically administered with sodium carboxymethylcellulose (CMC-Na) solution. After 12 weeks of administration, all mice were fasted overnight. The blood sample was taken from the retro-orbital plexus, collected in a EP tube, and then centrifuged for 15 min (2500 rpm). The centrifuged serum (upper layer) was transferred to new EP tubes (divided into two aliquots) and stored at −20° C. for further use. The mice were fixed, and the skin was cut open along the midline of the abdomen to the neck. The abdominal cavity was cut open to collect the fresh liver tissue. The Liver tissue was put into 3 freezing tubes, and then immediately put into liquid nitrogen for subsequent detection of liver lipid detection and extraction of RNA and protein. The thorax was cut open to expose the heart. […]

In a further assay the test system is MAPK signaling pathway. Nature of the assay: Western-blot of MAPK signaling pathway in ApoE−/− mice. The settings on record: FIG. 8. Type of assay: in vivo. On the procedure:
as §1, with “heart. The heart was perfused with 10 ml PBS, and then fixed by perfusion with 4% paraformaldehyde solution until the liver turned white. The fixed liver was taken out and placed in a six-well plate containing 4% paraformaldehyde solution for further fixation.” for “heart.”
When animal tissues were used to prepare protein samples, the tissues were firstly homogenized and lysed in the RIPA lysis buffer. […] When cell supernatants were used to prepare protein samples, the supernatants were freeze-dried, needed to be extracted using a protein recovery kit (Applygen, Beijing, China), and then analyzed by western-blot. […]

We go through one compound from patent US12590093B2, “Indolo[2′,3′:3,4]pyrido[2,1-b]quinazoline compound and use thereof” (INSTITUTE OF MEDICINAL BIOTECHNOLOGY CHINESE ACADEMY OF …, priority 2019, dated 2026).

Entries after “also recorded” stand apart in the source; their conditions may differ.

In the case of `c1ccc2c(c1)CN1CCc3c([nH]c4ccccc34)C1=N2` [TR3, 5,7,8,13-tetrahydroindolo[2′,3′:3,4]pyrido[2,1-b]quinazoline], in the assay with SR-BI, the maximal fold induction worked out at 2.07. Also, the LXRα max at LXRα (HepG2 cells, reporter gene, 18-24 h) was found to be 1.36. Moreover, the LXRα agonist activity result on LXRα (result in words) is “showed agonist activity; also recorded: simultaneously activated PPARα/γ/δ and LXRα/β to a certain extent”. The “atherosclerotic plaque area in the aorta” value with ApoE^−/− mice was “significantly reduced”. Further, in the assay on MAPK signaling pathway, the “expression of p-ERK” value is on record as “also inhibited”, the “expression of p-JNK” value is recorded as “also inhibited” and the “expression of p-P38” value was “also inhibited”.
